According to paper PMC9127750, “Structure-based design of CDC42 effector interaction inhibitors for the treatment of cancer” (Cell reports, 2022):
Where “and” joins values, the source holds several entries; their conditions need not be identical. Equal entries are not always repeated.

Tested on: WM3248 melanoma cells, 486 antibodies
Assay: Reverse phase protein arrays (RPPA)
Format: cell-based, Human
Description: Pellets were snap frozen in liquid nitrogen and shipped to MD Anderson Cancer Center core RPPA facility for RPPA analysis (Table S5). Three biological replicates for each sample were generated.
Nomenclatures on the RPPA heatmaps: name_of_antibody.species_of_antibody.status_of_antibody. V - antibody validated; C - validation of antibody in progress; Q - antibody nonspecific; E – under evaluation; antibodies raised in M - mouse, G - goat, R - rabbit, or T - rat.

[1] = Norm_20, replicates 1-3 and Average, relative to Norm_0

Structure (SMILES): CN(C)c1cccc(Nc2cc(-c3ccccc3)nc(C3CCNCC3)n2)c1 [ARN22089, N1,N1-dimethyl-N3-(6-phenyl-2-(piperidin-4-yl)pyrimidin-4-yl)benzene-1,3-diamine]
- Bax.R.V RPPA signal, normalized [1]: 1.116 and 1.001 and 1.099
- Bcl2.R.C RPPA signal, normalized [1]: 1.192 and 1.263 and 1.147 and 1.201
- Bcl.xL.R.V RPPA signal, normalized [1]: 1.010 and 1.055 and 1.349 and 1.138
- Beclin.R.C RPPA signal, normalized [1]: 0.940 and 1.021 and 1.001
- BiP.GRP78.M.C RPPA signal, normalized [1]: 0.957 and 0.997 and 0.968
- Bid.R.C RPPA signal, normalized [1]: 1.024 and 0.874 and 0.875 and 0.925
- Bim.R.V RPPA signal, normalized [1]: 1.050 and 0.910 and 0.906 and 0.955
- X4E.BP1.R.V RPPA signal, normalized [1]: 0.857 and 0.934 and 2.342 and 1.377
- X4E.BP1_pS65.R.V RPPA signal, normalized [1]: 0.791 and 0.833 and 1.063 and 0.895
- X4E.BP1_pT37_T46.R.V RPPA signal, normalized [1]: 0.867 and 0.753 and 1.126 and 0.915
- X14.3.3.zeta.R.V RPPA signal, normalized [1]: 0.941 and 0.920 and 0.970 and 0.944
- X14.3.3βR.V RPPA signal, normalized [1]: 1.101 and 1.160 and 0.888 and 1.050
- X14.3.3εM.C RPPA signal, normalized [1]: 0.855 and 0.892 and 1.081 and 0.943
- X53BP1.R.V RPPA signal, normalized [1]: 1.138 and 0.986 and 1.047 and 1.057
- b.Actin.R.C RPPA signal, normalized [1]: 1.058 and 1.299 and 1.110 and 1.155
- b.Catenin.R.V RPPA signal, normalized [1]: 0.975 and 0.858 and 1.031 and 0.954
- b.Catenin_pT41_S45.R.V RPPA signal, normalized [1]: 1.047 and 1.076
- c.Abl.R.V RPPA signal, normalized [1]: 1.061 and 1.026 and 1.186
- c.Abl_pY412.R.C RPPA signal, normalized [1]: 1.034 and 0.935 and 1.009 and 0.993
- c.IAP2.R.C RPPA signal, normalized [1]: 1.049 and 1.145 and 1.104 and 1.100
- C.Raf.R.C normalized signal (Norm_20 Average): 0.952
- CA9.R.C normalized signal (Norm_20 Average): 0.890
- CD2.M.C normalized signal (Norm_20 Average): 0.871
- CD4.R.V normalized signal (Norm_20 Average): 1.005
- CD5.M.C normalized signal (Norm_20 Average): 0.944
- CD20.R.C normalized signal (Norm_20 Average): 1.356
- CD26.R.V normalized signal (Norm_20 Average): 1.108
- CD29.M.V normalized signal (Norm_20 Average): 0.892
- CD31.M.V normalized signal (Norm_20 Average): 0.916
- CD44.R.C normalized signal (Norm_20 Average): 1.001
- CD45.M.V normalized signal (Norm_20 Average): 0.902
- CD49b.M.V normalized signal (Norm_20 Average): 1.012
- CD68.M.C normalized signal (Norm_20 Average): 0.968
- CD74.M.V normalized signal (Norm_20 Average): 0.926
- CD134.R.V normalized signal (Norm_20 Average): 0.946
- CD171.M.V normalized signal (Norm_20 Average): 0.712
- CDK1_pT14.R.C normalized signal (Norm_20 Average): 1.008
- CDK9.R.V normalized signal (Norm_20 Average): 0.932
- CDKN2A.R.C normalized signal (Norm_20 Average): 0.921
- CDT1.R.V normalized signal (Norm_20 Average): 0.857
- CENP.A.R.V normalized signal (Norm_20 Average): 1.525
- CRABP1.R.C normalized signal (Norm_20 Average): 0.968
- CRABP2.R.V normalized signal (Norm_20 Average): 0.841
- CREB_pS133.R.C normalized signal (Norm_20 Average): 1.190
- CSK.R.C normalized signal (Norm_20 Average): 0.923
- Calnexin.R.V normalized signal (Norm_20 Average): 0.926
- Caspase.3.cleaved.R.C normalized signal (Norm_20 Average): 1.013
- Caspase.7.cleaved..R.C normalized signal (Norm_20 Average): 1.013
- Caspase.8.M.Q normalized signal (Norm_20 Average): 0.961
- Caspase.8.cleaved.R.C normalized signal (Norm_20 Average): 0.957
- Caveolin.1.R.V normalized signal (Norm_20 Average): 0.866
- Cdc6.R.V normalized signal (Norm_20 Average): 0.851
- Cdc42.R.C normalized signal (Norm_20 Average): 0.996
- Chk1.M.C normalized signal (Norm_20 Average): 0.786
- Chk1_pS345.R.C normalized signal (Norm_20 Average): 1.170
- Chk2.M.V normalized signal (Norm_20 Average): 0.875
- Chk2_pT68.R.C normalized signal (Norm_20 Average): 1.128
- Claudin.7.R.V normalized signal (Norm_20 Average): 1.226
- Collagen.VI.R.V normalized signal (Norm_20 Average): 1.013
- Complex.II.Subunit.M.V normalized signal (Norm_20 Average): 1.002
- Coup.TFII.R.C normalized signal (Norm_20 Average): 1.005
- Cox2.R.C normalized signal (Norm_20 Average): 1.349
- Cox.IV.R.V normalized signal (Norm_20 Average): 0.992
- Creb.R.C normalized signal (Norm_20 Average): 1.053
- CtIP.R.V normalized signal (Norm_20 Average): 0.962
- Cyclin.B1.R.V normalized signal (Norm_20 Average): 0.968
- Cyclin.D1.R.C normalized signal (Norm_20 Average): 0.986
- Cyclin.D3.M.V normalized signal (Norm_20 Average): 0.749
- Cyclin.E1.R.V normalized signal (Norm_20 Average): 0.902
- Cyclophilin.F.M.V normalized signal (Norm_20 Average): 0.934
- D.a.Tubulin.R.V normalized signal (Norm_20 Average): 0.990
- DAPK1_pS308.M.C normalized signal (Norm_20 Average): 2.076
- DAPK2.R.C normalized signal (Norm_20 Average): 1.013
- DDB.1.R.V normalized signal (Norm_20 Average): 0.922
- DDR1.R.V normalized signal (Norm_20 Average): 0.996
- DDR1_pY513.R.C normalized signal (Norm_20 Average): 1.082
- DJ1.R.V normalized signal (Norm_20 Average): 0.929
- DM.Histone.H3.R.V normalized signal (Norm_20 Average): 1.963
- DM.K9.Histone.H3.M.V normalized signal (Norm_20 Average): 1.372
- DNA.Ligase.IV.R.C normalized signal (Norm_20 Average): 0.924
- DNA_POLG.R.V normalized signal (Norm_20 Average): 1.084
